Results: patent US5180742A, “Quinone derivatives, their production and use” (Takeda Chemical Industries, Ltd., priority 1984, dated 1993)

What was measured:
[1] = system: SRS-A generation in the rat peritoneal cavity; assay: Effects on immunologically stimulated generation of SRS-A in the rat peritoneal cavity; assay type: in vivo; details: 1 mg/kg intraperitoneal, 1 min before antigen
Procedure: Slow Reacting Substance of Anaphylaxis (SRS-A) Generation in Rat Peritoneal Cavity
Generation of SRS-A in rat peritoneal cavity was determined by the method of Orange et al. [J. Immunol., 105, 1087-1095 (1970)] Rat-anti-egg albumin antiserum wad diluted twice with saline, and 2 ml of it was intraperitoneally given to the rat. Two hours later, egg albumin 2 mg in 5 ml of Tyrode solution containing heparin ([…]) and gelatin (0.1%) was intraperitoneally administered. Fifteen minutes after the antigen challenge, the animals were killed by bleeding under ether anesthesia and the solution given into the peritoneal cavity was harvested. The solution was centrifuged at 900 g for 5 min. Two ml of the supernatent was mixed with 7 ml of cold absolute ethanol and the mixture stood for 30 min at 4° C. After centrifugation at 1,500 g for 10 min, the supernatant was evaporated. The residue was dissolved in 1 ml of saline. Amount of SRS-A was bioassayed using guinea pig ileum. Drug dissolved in a 1% dimethylsulfoxide was intraperitoneally given 1 min before the antigen challenge.

[2] = system: ischemic convulsive seizure due to bilateral common carotid artery ligation in SHR rats; assay: Inhibitory action on induction of convulsive seizure in experimental cerebral infarction model of SHR rats; assay type: in vivo, spontaneously hypertensive rats; details: control 151 ± 5
Procedure: Inhibitory Action on Induction of Convulsive Seizure in an Experimental Cerebral Infarction Model of Spontaneously Hypertensive Rats
Cerebral ischemia was induced by simultaneous ligation of bilateral common carotid arteries in male spontaneously hypertensive (SHR) rats (about 22 weeks of age) under light pentobarbital anesthesia. Thereafter, over about 4 hours, the behaviour was observed under conscious state.
Test drugs were orally administered as a gum arabic suspension 1 hour before the ligation of bilateral common carotid arteries under an unanesthetized condition.

[3] = system: lipid peroxides production in rat brain homogenates; assay: Inhibitory action on lipid peroxides production in rat brain homogenates (thiobarbituric acid method); assay type: biochemical, rat (SD); details: n = 4-6
Procedure: Inhibitory Action on Lipid Peroxides Production in Rat Brain Homogenates
The male SD rat brain tissue was used as 5% homogenate in phosphate-buffered solution. After incubation of the homogenate for 1 hour at 37° C., the amount of lipid peroxides produced was determined by the thiobarbituric acid method according to the description of Ohkawa et al. (Analytical Biochemistry, 95: 551, 1979)
Test compounds were used as a solution of dimethylsulfoxide. The inhibitory action on lipid peroxide production was expressed as a % inhibition as compared with the amount of production in the vehicle group. Results

[4] = system: mice of ICR breed; assay type: in vivo; details: 1000 mg/kg oral, male ICR mice, 7 days
Text: Acute Toxicity Test in Mice (Acute Toxicity)
1000 Milligrams per kilogram of each set specimen was applied orally to groups of 5 five-weeks old male mice of ICR breed, and a number of dead animals observed for the 7-days period was counted.

Structure (SMILES) | SRS-A generation, Inhibition (%) [1] [%] | SRS-A generation ([1]; control 26.5 ± 3.9) [LTD4 ng/rat] | Time to appearance of convulsive seizure ([2]; 3 mg/kg oral) [min] | Time to appearance of convulsive seizure ([2]; 10 mg/kg oral) [min] | Inhibition of lipid peroxides production ([3]; 10^-5 M) [%] | Inhibition of lipid peroxides production ([3]; 10^-6 M) [%] | Inhibition of lipid peroxides production ([3]; 10^-7 M) [%] | Acute toxicity (number of dead animals/number of animals used) [4]
CC1=C(C)C(=O)C(C(CCCCCC(=O)O)c2ccccc2)=C(C)C1=O (centres unmarked) [Compound No. 50, 7-(3,5,6-trimethyl-1,4-benzoquinon-2-yl)-7-phenylheptanoic acid] | 72 | 7.5 ± 2.0 | 204 ± 7 | 220 ± 9 | 100 ± 0 | 66.6 ± 12.4 | 16.7 ± 3.2 | –
CC1=C(C)C(=O)C(C(CCCCCC(=O)O)c2ccc(C)cc2)=C(C)C1=O (centres unmarked) [Compound No. 93] | – | – | – | – | – | – | – | 0/5
